Reference: PubChem BioAssay AID624009 (Vanderbilt Specialized Chemistry Center, 2012)
The source made the active and inactive calls. The rule behind the calls is not given here.

Target: Phospholipase D2 (Homo sapiens) + Phospholipase D2 (Homo sapiens) (UniProt O14939+O14939)
Assay: phospholipase D2 activity inhibition in cells – cell-based, HEK293 overexpressing PLD2, Lib32, assay 1B (AID 624009)
Settings: HEK293 cells overexpressing PLD2, cellular PLD activity; stronger effect = lower value; concentration not given here

Sequence of Phospholipase D2 (Homo sapiens) + Phospholipase D2 (Homo sapiens) (O14939 whole entry, looked up): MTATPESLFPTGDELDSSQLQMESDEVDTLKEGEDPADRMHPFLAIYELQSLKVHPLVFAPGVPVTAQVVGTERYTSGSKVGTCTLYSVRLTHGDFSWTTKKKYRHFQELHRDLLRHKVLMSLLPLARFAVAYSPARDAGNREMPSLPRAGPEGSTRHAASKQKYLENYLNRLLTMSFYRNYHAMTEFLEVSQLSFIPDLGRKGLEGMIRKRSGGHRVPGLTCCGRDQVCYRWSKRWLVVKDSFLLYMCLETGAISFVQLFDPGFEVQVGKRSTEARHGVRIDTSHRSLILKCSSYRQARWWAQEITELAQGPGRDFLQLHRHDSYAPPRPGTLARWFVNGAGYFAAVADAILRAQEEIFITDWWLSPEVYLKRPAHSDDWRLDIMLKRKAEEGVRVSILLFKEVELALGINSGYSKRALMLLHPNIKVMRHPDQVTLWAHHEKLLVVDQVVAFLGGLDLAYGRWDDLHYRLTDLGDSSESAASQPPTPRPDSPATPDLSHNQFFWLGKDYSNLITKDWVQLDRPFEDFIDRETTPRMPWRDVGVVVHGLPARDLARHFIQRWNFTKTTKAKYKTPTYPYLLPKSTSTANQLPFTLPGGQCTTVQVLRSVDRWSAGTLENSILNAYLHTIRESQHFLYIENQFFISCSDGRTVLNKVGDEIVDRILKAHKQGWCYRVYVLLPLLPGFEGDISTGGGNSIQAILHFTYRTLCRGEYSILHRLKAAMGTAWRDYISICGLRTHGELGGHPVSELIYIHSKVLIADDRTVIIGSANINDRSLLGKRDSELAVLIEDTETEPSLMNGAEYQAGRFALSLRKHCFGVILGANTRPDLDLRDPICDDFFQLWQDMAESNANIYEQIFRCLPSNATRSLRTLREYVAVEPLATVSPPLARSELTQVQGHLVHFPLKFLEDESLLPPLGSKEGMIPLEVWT
Sequence of Phospholipase D2 (Homo sapiens) + Phospholipase D2 (Homo sapiens) (O14939 whole entry, looked up): as above

SMILES | remaining activity
COc1cc(C(=O)NCCN2CCC3(CC2)C(=O)NCN3c2cccc(F)c2)cc(OC)c1OC | 46.7%
O=C(NCCN1CCC2(CC1)C(=O)NCN2c1cccc(F)c1)c1ccc(Br)cc1 | 39.2%
C[C@@H](CN1CCC2(CC1)C(=O)NCN2c1cccc(F)c1)NC(=O)c1ccccc1I | 79.4% (inactive)
O=C(NCCN1CCC2(CC1)C(=O)NCN2c1cccc(F)c1)c1cccc(C(F)(F)F)c1 | 107% (inactive)
O=C(NCCN1CCC2(CC1)C(=O)NCN2c1cccc(F)c1)c1c(F)ccc(F)c1Cl | 85% (inactive)
O=C(NCCN1CCC2(CC1)C(=O)NCN2c1cccc(F)c1)c1ccccn1 | 99.8% (inactive)
COc1cc(C(=O)N[C@@H](C)CN2CCC3(CC2)C(=O)NCN3c2cccc(F)c2)cc(OC)c1OC | 34.8%
O=C(NCCN1CCC2(CC1)C(=O)NCN2c1cccc(F)c1)c1cccc2c1OCO2 | 83.3% (inactive)
C[C@@H](CN1CCC2(CC1)C(=O)NCN2c1cccc(F)c1)NC(=O)c1c(F)cccc1F | 106% (inactive)
O=C(NCCN1CCC2(CC1)C(=O)NCN2c1cccc(F)c1)c1ccccc1I | 111% (inactive)
O=C(Cc1ccc(F)cc1)NCCN1CCC2(CC1)C(=O)NCN2c1cccc(F)c1 | 92.5% (inactive)
O=C(NCCN1CCC2(CC1)C(=O)NCN2c1cccc(F)c1)c1ccc(F)cc1F | 111% (inactive)
C[C@@H](CN1CCC2(CC1)C(=O)NCN2c1cccc(F)c1)NC(=O)c1ccc(F)cc1 | 33.3%
C[C@@H](CN1CCC2(CC1)C(=O)NCN2c1cccc(F)c1)NC(=O)c1ccc(F)cc1F | 48.2%
C[C@@H](CN1CCC2(CC1)C(=O)NCN2c1cccc(F)c1)NC(=O)c1cccc(C(F)(F)F)c1 | 68.8% (inactive)
C[C@@H](CN1CCC2(CC1)C(=O)NCN2c1cccc(F)c1)NC(=O)c1c(F)ccc(F)c1Cl | 94.8% (inactive)
C[C@@H](CN1CCC2(CC1)C(=O)NCN2c1cccc(F)c1)NC(=O)c1cccc2ccccc12 | 81% (inactive)
C[C@@H](CN1CCC2(CC1)C(=O)NCN2c1cccc(F)c1)NC(=O)c1cccc(F)c1 | 53.3%
O=C(c1ccc(F)cc1)N(CCN1CCC2(CC1)C(=O)NCN2c1cccc(F)c1)C(=O)c1ccc(F)cc1 | 102% (inactive)
O=C(NCCN1CCC2(CC1)C(=O)NCN2c1cccc(F)c1)c1ccc(F)cc1 | 59.4%
O=C(NCCN1CCC2(CC1)C(=O)NCN2c1cccc(F)c1)c1ccc(Cl)cc1Cl | 116% (inactive)
O=C(NCCN1CCC2(CC1)C(=O)NCN2c1cccc(F)c1)c1cccc2ccccc12 | 96.3% (inactive)
O=C(NCCN1CCC2(CC1)C(=O)NCN2c1cccc(F)c1)c1cccc([N+](=O)[O-])c1 | 71% (inactive)
C[C@@H](CN1CCC2(CC1)C(=O)NCN2c1cccc(F)c1)NC(=O)c1ccc(Cl)cc1Cl | 81.5% (inactive)
C[C@@H](CN1CCC2(CC1)C(=O)NCN2c1cccc(F)c1)NC(=O)c1cccc([N+](=O)[O-])c1 | 74.9% (inactive)
C[C@@H](CN1CCC2(CC1)C(=O)NCN2c1cccc(F)c1)NC(=O)c1ccc(F)c(F)c1 | 22.8%
C[C@@H](CN1CCC2(CC1)C(=O)NCN2c1cccc(F)c1)NC(=O)Cc1ccc(F)cc1 | 91.1% (inactive)
C[C@@H](CN1CCC2(CC1)C(=O)NCN2c1cccc(F)c1)NC(=O)c1ccc(Br)cc1 | 26.6%
